According to patent publication US20110288086A1, “POLYCYCLIC QUINAZOLINES, PREPARATION THEREOF, AND USE THEREOF” (priority 2010, published 2011):
Converted amounts (≈) assume the structure as drawn.

Key:
[1] = tested on: MDA-MB-435s human breast carcinoma cells; test: Tumor cell inhibition ratio, CCK-8 kit, MDA-MB-435s; details: read-out: Antiproliferative effect (inhibition ratio) 435s
Text: (§3) The inhibitory activities of the compounds on tumor cells in vitro

[2] = tested on: Hut78 T-Lymphocytic Leukemia cells; test: Tumor cell IC50, CCK-8 kit, Hut78; assay type: cell-based; details: Homo sapiens, Hut-78 cells
Text: (§1) The inhibitory activities of the compounds on tumor cells (IC50) in vitro
(§2) The IC50 (IC50, unit: μg/ml) values of the compounds on Hut78 T-Lymphocytic Leukemia cells, Jurkat E6-1 human T-cell lymphoma, PANC-1 human pancreatic cancer cells, A549 human lung cancer cells, K562 human chronicity marrow leukemic cells, Hep3B2. 1-7 human hepatoma carcinoma cells, MDA-MB-435s human breast carcinoma cells, Colo320 human rectal cancer cells, PC-3 human carcinoma of prostate, and HepG2 human hepatoma carcinoma cells were determined using a CCK-8 kit. Erlotinib hydrochloride was used as the positive control drug.

[3] = tested on: PANC-1 human pancreatic cancer cells; test: Tumor cell IC50, CCK-8 kit, PANC-1; assay type: cell-based; details: PANC-1 cells
Text: as §1, §2

[4] = tested on: MDA-MB-435s human breast carcinoma cells; test: Tumor cell IC50, CCK-8 kit, MDA-MB-435s; assay type: cell-based; details: 435s cells
Text: as §1, §2

[5] = tested on: Jurkat E6-1 human T-cell lymphoma; test: Tumor cell IC50, CCK-8 kit, Jurkat E6-1; assay type: cell-based; details: E6-1 cells
Text: as §1, §2

[6] = biological target: T1, aurora kinase B (Homo sapiens, UniProt Q96GD4); test: Aurora kinase B inhibition in vitro (Invitrogen aurora kinase screening kit PV3174); assay type: biochemical
T1 construct: purchased Invitrogen PV3174
T1 sequence (Q96GD4 whole entry): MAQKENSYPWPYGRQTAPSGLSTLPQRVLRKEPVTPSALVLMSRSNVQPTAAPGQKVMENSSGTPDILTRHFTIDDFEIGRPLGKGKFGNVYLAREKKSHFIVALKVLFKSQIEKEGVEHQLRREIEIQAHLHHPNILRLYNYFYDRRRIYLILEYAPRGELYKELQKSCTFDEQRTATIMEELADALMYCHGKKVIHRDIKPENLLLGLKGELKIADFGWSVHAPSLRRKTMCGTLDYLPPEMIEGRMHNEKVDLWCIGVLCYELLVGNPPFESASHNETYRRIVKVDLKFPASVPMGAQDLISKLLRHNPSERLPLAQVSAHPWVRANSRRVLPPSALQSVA

[7] = tested on: K562 human chronicity marrow leukemic cells; test: Tumor cell inhibition ratio, CCK-8 kit, K562; details: K562, read-out: Antiproliferative effect (inhibition ratio) K562
Text: as §3

[8] = tested on: Colo320 human rectal cancer cells; test: Tumor cell IC50, CCK-8 kit, Colo320; assay type: cell-based; details: COLO 320
Text: as §1, §2

[9] = tested on: PC-3 human carcinoma of prostate; test: Tumor cell inhibition ratio, CCK-8 kit, PC-3; details: read-out: Antiproliferative effect (inhibition ratio) PC-3
Text: as §3

[10] = tested on: Colo320 human rectal cancer cells; test: Tumor cell inhibition ratio, CCK-8 kit, Colo320; details: COLO 320, read-out: Antiproliferative effect (inhibition ratio) Colo320
Text: as §3

[11] = tested on: A549 human lung cancer cells; test: Tumor cell IC50, CCK-8 kit, A549; assay type: cell-based
Text: as §1, §2

[12] = tested on: PANC-1 human pancreatic cancer cells; test: Tumor cell inhibition ratio, CCK-8 kit, PANC-1; details: PANC-1, read-out: Antiproliferative effect (inhibition ratio) PANC-1
Text: as §3

[13] = biological target: EGFR tyrosine kinase (Homo sapiens, UniProt P00533); test: EGFR tyrosine kinase inhibition in vitro (Invitrogen EGFR inhibitor screening kit PV3193)
Chain of EGFR tyrosine kinase (P00533 25-1210): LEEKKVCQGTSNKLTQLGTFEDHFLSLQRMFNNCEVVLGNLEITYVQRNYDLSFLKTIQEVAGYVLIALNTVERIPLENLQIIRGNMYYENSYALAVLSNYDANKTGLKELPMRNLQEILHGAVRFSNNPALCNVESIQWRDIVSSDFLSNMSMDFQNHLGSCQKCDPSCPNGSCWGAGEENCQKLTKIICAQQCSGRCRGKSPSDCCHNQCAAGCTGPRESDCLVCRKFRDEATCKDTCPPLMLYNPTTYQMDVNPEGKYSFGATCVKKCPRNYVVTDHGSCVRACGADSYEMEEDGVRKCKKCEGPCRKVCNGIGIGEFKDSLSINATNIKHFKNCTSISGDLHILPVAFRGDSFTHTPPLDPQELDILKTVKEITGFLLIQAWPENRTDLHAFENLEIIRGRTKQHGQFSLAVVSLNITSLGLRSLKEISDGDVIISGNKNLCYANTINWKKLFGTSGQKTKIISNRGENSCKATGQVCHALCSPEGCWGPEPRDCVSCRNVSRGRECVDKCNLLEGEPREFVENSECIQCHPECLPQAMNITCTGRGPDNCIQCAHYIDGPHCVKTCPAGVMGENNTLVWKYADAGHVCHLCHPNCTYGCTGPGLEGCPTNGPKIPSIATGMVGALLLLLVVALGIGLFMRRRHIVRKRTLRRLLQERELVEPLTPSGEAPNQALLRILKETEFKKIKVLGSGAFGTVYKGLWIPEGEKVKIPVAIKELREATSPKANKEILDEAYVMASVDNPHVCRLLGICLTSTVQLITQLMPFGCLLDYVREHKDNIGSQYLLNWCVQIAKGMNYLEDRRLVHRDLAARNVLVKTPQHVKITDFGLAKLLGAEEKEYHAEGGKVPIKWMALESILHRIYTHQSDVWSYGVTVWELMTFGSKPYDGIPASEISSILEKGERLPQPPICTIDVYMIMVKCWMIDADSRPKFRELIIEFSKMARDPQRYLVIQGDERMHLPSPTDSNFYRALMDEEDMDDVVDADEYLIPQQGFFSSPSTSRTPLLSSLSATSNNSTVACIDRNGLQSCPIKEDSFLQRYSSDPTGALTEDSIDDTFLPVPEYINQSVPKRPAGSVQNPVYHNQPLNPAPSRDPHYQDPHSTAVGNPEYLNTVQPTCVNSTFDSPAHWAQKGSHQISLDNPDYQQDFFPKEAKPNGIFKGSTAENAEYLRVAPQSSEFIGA
Text: The inhibitory activities of EGFR tyrosine kinase in vitro
Erlotinib hydrochloride was used as a positive control drug.

[14] = tested on: Hut78 T-Lymphocytic Leukemia cells; test: Tumor cell inhibition ratio, CCK-8 kit, Hut78; details: Homo sapiens, HuT78, read-out: Antiproliferative effect (inhibition ratio) Hut-78
Text: as §3

[15] = tested on: Hep3B2.1-7 human hepatoma carcinoma cells; test: Tumor cell inhibition ratio, CCK-8 kit, Hep3B; details: read-out: Antiproliferative effect (inhibition ratio) Hep3B
Text: as §3

[16] = Acute Toxicity Study; details: in vivo; preliminary screening, Bliss statistical method
Procedure: The acute toxicity experiments were carried out according to the methods disclosed in the book of Modern Pharmacological Methods, edited chiefly by Zhang Jun-Tian.

[17] = tested on: Jurkat E6-1 human T-cell lymphoma; test: Tumor cell inhibition ratio, CCK-8 kit, Jurkat E6-1; details: Jurkat E6.1, read-out: Antiproliferative effect (inhibition ratio) E6-1
Text: as §3

[18] = tested on: Hep3B2. 1-7 human hepatoma carcinoma cells; test: Tumor cell IC50, CCK-8 kit, Hep3B; assay type: cell-based
Text: as §1, §2

[19] = tested on: A549 human lung cancer cells; test: Tumor cell inhibition ratio, CCK-8 kit, A549; details: A549, read-out: Antiproliferative effect (inhibition ratio) A549
Text: as §3

[20] = tested on: PC-3 human carcinoma of prostate; test: Tumor cell IC50, CCK-8 kit, PC-3; assay type: cell-based; details: PC-3 cells
Text: as §1, §2

[21] = tested on: K562 human chronicity marrow leukemic cells; test: Tumor cell IC50, CCK-8 kit, K562; assay type: cell-based
Text: as §1, §2

Row | Structure (SMILES) | IC50 [2] [µg/mL] | IC50 [3] [µg/mL] | IC50 [4] [µg/mL] | IC50 [5] [µg/mL] | The inhibition ratio of the compound on Aurora B(%) ([6]; 40 μM) | The inhibition ratio of the compound on Aurora B(%) ([6]; 200 μM) | IC50 [8] [µg/mL] | IC50 [11] [µg/mL] | The inhibition ratio of the compound on EGFR(%) ([13]; 40 μM) | The inhibition ratio of the compound on EGFR(%) ([13]; 200 μM) | inhibition at 10 µM [1] [%] | inhibition at 100 µM [1] [%] | inhibition at 10 µM [7] [%] | inhibition at 100 µM [7] [%] | inhibition at 10 µM [9] [%] | inhibition at 100 µM [9] [%] | inhibition at 10 µM [10] [%] | inhibition at 10 µM [12] [%] | inhibition at 100 µM [12] [%] | inhibition at 10 µM [14] [%] | also measured
1 | COCCOc1cc2c(cc1OCCOC)C1=Nc3cccc(Br)c3CN1C=N2.Cl [Compound V-2, 9-bromo-2,3-bis(2-methoxyethoxy)-8H-quinazolino[4,3-b]quinazoline hydrochloride hemihydrate] | 61.1 | 0.11 | 0.42 | 15.3 | 53.2 | 95.8 | 32.3 | 0.67 | 62.9 | 97.9 | 59.8 | 82.6 | 65.4 | 91.1 | 72.2 | 92.7 | 57 | 59.7 | 95.9 | 28.9 | inhibition at 100 µM [10]: 89.6%; inhibition at 100 µM [14]: 73.8%; inhibition at 10 µM [15]: 53.5%; inhibition at 100 µM [15]: 90%; LD50 [16]: 2050 mg/kg; inhibition at 10 µM [17]: 56.2%; inhibition at 100 µM [17]: 83.1%; IC50 [18]: 9.83 µg/mL; inhibition at 10 µM [19]: 68.6%; inhibition at 100 µM [19]: 90.7%; IC50 [20]: 4.78 µg/mL; IC50 [21]: 34 µg/mL
2 | COCCOc1cc2c(cc1OCCOC)C1=Nc3ccc(F)c(Cl)c3CN1C=N2 [Compound V-13, 9-chloro-10-fluoro-2,3-bis(2-methoxyethoxy)-8H-quinazolino[4,3-b]quinazoline] | 0.62 (≈ 1.43 µM) | 14.9 (≈ 34.3 µM) | 31.4 (≈ 72.4 µM) | 3.89 (≈ 8.97 µM) | 55.2 | 95.8 | 9.88 (≈ 22.8 µM) | 10.7 (≈ 24.7 µM) | 45.7 | 88.9 | 26.8 | 67.9 | 66.2 | 98.5 | 61.4 | 87.7 | 59.7 | 45.9 | 87.2 | 66.2 | inhibition at 100 µM [14]: 101%; inhibition at 10 µM [15]: 64.7%; inhibition at 100 µM [15]: 102%; inhibition at 10 µM [17]: 52.6%; inhibition at 100 µM [17]: 98%; IC50 [18]: 0.32 µg/mL (≈ 0.738 µM); inhibition at 10 µM [19]: 43%; inhibition at 100 µM [19]: 91.1%; IC50 [20]: 9.78 µg/mL (≈ 22.5 µM); IC50 [21]: 11 µg/mL (≈ 25.3 µM)
3 | COCCOc1cc2c(cc1OCCOC)C1=Nc3cc(Cl)ccc3CN1C=N2 [Compound V-15, 11-chloro-2,3-bis(2-methoxyethoxy)-8H-quinazolino[4,3-b]quinazoline] | 14.3 (≈ 34.5 µM) | 8.32 (≈ 20 µM) | 21 (≈ 50.5 µM) | 5.72 (≈ 13.8 µM) | 58.7 | 92.5 | 55.6 (≈ 134 µM) | 1.01 (≈ 2.43 µM) | 60.7 | 94.0 | 72.6 | 92 | 45.2 | 91.5 | 42.4 | 81.3 | 58.3 | 61.8 | 94.1 | 61 | inhibition at 100 µM [10]: 96.5%; inhibition at 100 µM [14]: 93.2%; inhibition at 10 µM [15]: 52.4%; inhibition at 100 µM [15]: 97.4%; LD50 [16]: 2970 mg/kg; inhibition at 10 µM [17]: 69.5%; inhibition at 100 µM [17]: 85.8%; IC50 [18]: 6.91 µg/mL (≈ 16.6 µM); inhibition at 10 µM [19]: 75.6%; inhibition at 100 µM [19]: 90.8%; IC50 [20]: 24.6 µg/mL (≈ 59.2 µM); IC50 [21]: 1.5 µg/mL (≈ 3.61 µM)

Second part, led by results:

Row | IC50 [2] [µg/mL] | IC50 [3] [µg/mL] | IC50 [4] [µg/mL] | IC50 [5] [µg/mL] | The inhibition ratio of the compound on Aurora B(%) ([6]; 40 μM) | The inhibition ratio of the compound on Aurora B(%) ([6]; 200 μM) | IC50 [8] [µg/mL] | IC50 [11] [µg/mL] | The inhibition ratio of the compound on EGFR(%) ([13]; 40 μM) | The inhibition ratio of the compound on EGFR(%) ([13]; 200 μM) | Structure (SMILES) | inhibition at 10 µM [1] [%] | inhibition at 100 µM [1] [%] | inhibition at 10 µM [7] [%] | inhibition at 100 µM [7] [%] | inhibition at 10 µM [9] [%] | inhibition at 100 µM [9] [%] | inhibition at 10 µM [10] [%] | inhibition at 10 µM [12] [%] | inhibition at 100 µM [12] [%] | inhibition at 10 µM [14] [%] | also measured
4 | 47.4 (≈ 117 µM) | 27.3 (≈ 67.4 µM) | 36.5 (≈ 90.1 µM) | 12.5 (≈ 30.7 µM) | 52.4 | 95.7 | 10 (≈ 24.7 µM) | 50 (≈ 123 µM) | 53.4 | 95.7 | C#Cc1ccc2c(c1)N=C1c3cc(OCCOC)c(OCCOC)cc3N=CN1C2 [Compound V-19, 11-ethynyl-2,3-bis(2-methoxyethoxy)-8H-quinazolino[4,3-b]quinazoline] | 55.8 | 91.6 | 45.4 | 81.1 | 62.2 | 92.7 | 37 | 49.7 | 85.9 | 33 | inhibition at 100 µM [10]: 89.6%; inhibition at 100 µM [14]: 63.8%; inhibition at 10 µM [15]: 53.5%; inhibition at 100 µM [15]: 85%; inhibition at 10 µM [17]: 55.2%; inhibition at 100 µM [17]: 91.1%; IC50 [18]: 9.32 µg/mL (≈ 23 µM); inhibition at 10 µM [19]: 48.6%; inhibition at 100 µM [19]: 90.7%; IC50 [20]: 15.3 µg/mL (≈ 37.8 µM); IC50 [21]: 31.1 µg/mL (≈ 76.7 µM)
5 | 2.14 (≈ 5.04 µM) | 1.94 (≈ 4.57 µM) | 53.4 (≈ 126 µM) | 9.86 (≈ 23.2 µM) | 52.5 | 90.3 | 4.76 (≈ 11.2 µM) | 23.3 (≈ 54.8 µM) | 53.1 | 94.3 | COc1cc2c(cc1OCCCN1CCCC1)C1=Nc3cccc(Cl)c3CN1C=N2 [Compound V-24, 9-chloro-3-methoxy-2-(3-(pyrrolidine-1-yl)propoxy)-8H-quinazolino[4,3-b]quinazoline] | 48.9 | 66.2 | 53.6 | 93.8 | 53.5 | 98.9 | 52.7 | 42.4 | 99.9 | 44.3 | inhibition at 100 µM [10]: 99.4%; inhibition at 100 µM [14]: 99.6%; inhibition at 10 µM [15]: 60.3%; inhibition at 100 µM [15]: 94.6%; inhibition at 10 µM [17]: 46.6%; inhibition at 100 µM [17]: 87.3%; IC50 [18]: 43.1 µg/mL (≈ 101 µM); inhibition at 10 µM [19]: 50.7%; inhibition at 100 µM [19]: 98.2%; IC50 [20]: 3.41 µg/mL (≈ 8.02 µM); IC50 [21]: 10.3 µg/mL (≈ 24.3 µM)
6 | 16.7 (≈ 37.9 µM) | 18.8 (≈ 42.6 µM) | 16.3 (≈ 37 µM) | 10 (≈ 22.7 µM) | 45.2 | 78.7 | 59.7 (≈ 135 µM) | 6.42 (≈ 14.6 µM) | 64.4 | 98.7 | COc1cc2c(cc1OCCCN1CCOCC1)C1=Nc3cc(Cl)ccc3CN1C=N2 [Compound V-28, 4-(3-((11-chloro-3-methoxy-8H-quinazolino[4,3-b]quinazoline-2-yl)oxy)propyl)morpholine] | 54.9 | 90.7 | 64.6 | 99.9 | 56.4 | 88 | 16.3 | 51.7 | 95.6 | 59.2 | inhibition at 100 µM [10]: 63.3%; inhibition at 100 µM [14]: 90.5%; inhibition at 10 µM [15]: 40.1%; inhibition at 100 µM [15]: 92.8%; inhibition at 10 µM [17]: 40.4%; inhibition at 100 µM [17]: 95.4%; IC50 [18]: 36.8 µg/mL (≈ 83.3 µM); inhibition at 10 µM [19]: 53.7%; inhibition at 100 µM [19]: 97.5%; IC50 [20]: 31.4 µg/mL (≈ 71.3 µM); IC50 [21]: 7.84 µg/mL (≈ 17.8 µM)
